This passage reports IC50 results from patent US9802941B2, “Compounds and methods for inhibiting histone demethylases” (Gilead Sciences, Inc., priority 2014, dated 2017).

SMILES strings stand for the structures. Like-named read-outs stand apart in the source and are kept apart here. A value given as a limit tells only on which side of the number the result lay.

Assay type in all cases: biochemical
One test deals with T1, KDM5B (PLU-1) (Homo sapiens, UniProt Q9UGL1).
T1 construct: BRIC; 1-809; E. coli; host or cells: E. coli
T1 sequence (Q9UGL1 1-809): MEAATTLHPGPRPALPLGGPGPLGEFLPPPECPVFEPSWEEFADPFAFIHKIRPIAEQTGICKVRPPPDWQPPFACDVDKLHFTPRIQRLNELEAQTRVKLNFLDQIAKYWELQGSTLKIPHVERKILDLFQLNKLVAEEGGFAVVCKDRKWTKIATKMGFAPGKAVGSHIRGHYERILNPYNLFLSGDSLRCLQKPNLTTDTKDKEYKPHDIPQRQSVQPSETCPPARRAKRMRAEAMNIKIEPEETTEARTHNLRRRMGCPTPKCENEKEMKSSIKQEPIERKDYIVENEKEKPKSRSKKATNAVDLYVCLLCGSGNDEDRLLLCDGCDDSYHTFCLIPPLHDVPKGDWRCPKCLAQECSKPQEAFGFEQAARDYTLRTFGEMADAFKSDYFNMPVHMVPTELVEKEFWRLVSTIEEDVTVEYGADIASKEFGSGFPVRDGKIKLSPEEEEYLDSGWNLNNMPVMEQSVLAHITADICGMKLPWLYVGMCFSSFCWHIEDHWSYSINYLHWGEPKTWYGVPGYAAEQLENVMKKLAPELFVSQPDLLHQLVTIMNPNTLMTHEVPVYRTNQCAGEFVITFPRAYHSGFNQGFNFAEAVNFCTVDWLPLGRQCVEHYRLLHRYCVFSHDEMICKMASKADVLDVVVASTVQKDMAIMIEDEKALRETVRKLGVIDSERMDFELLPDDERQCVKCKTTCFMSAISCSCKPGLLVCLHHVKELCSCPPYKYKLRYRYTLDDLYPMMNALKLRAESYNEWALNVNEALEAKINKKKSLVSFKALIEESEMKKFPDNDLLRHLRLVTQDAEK
As to the kind of experiment: Histone lysine demethylase AlphaLISA assay, KDM5B. The method, boiled down: (§1)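 Enzyme was preincubated in buffer (50 mM Hepes pH 7.4-8.0, 0.003-0.01% Tween-20, 0.1% BSA, 5 μM (NH4)2Fe(SO4)2), then added to compound in DMSO and incubated 10 minutes before substrate. After reaction at room temperature, acceptor and streptavidin donor beads were added and AlphaLISA signal read.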

The target of a further test is T2, KDM4C (JMJD2C) (Homo sapiens, UniProt Q9H3R0).
T2 construct: KDM4C; BRIC, Denmark; 1-349; E. coli; host or cells: E. coli
T2 sequence (Q9H3R0 1-349): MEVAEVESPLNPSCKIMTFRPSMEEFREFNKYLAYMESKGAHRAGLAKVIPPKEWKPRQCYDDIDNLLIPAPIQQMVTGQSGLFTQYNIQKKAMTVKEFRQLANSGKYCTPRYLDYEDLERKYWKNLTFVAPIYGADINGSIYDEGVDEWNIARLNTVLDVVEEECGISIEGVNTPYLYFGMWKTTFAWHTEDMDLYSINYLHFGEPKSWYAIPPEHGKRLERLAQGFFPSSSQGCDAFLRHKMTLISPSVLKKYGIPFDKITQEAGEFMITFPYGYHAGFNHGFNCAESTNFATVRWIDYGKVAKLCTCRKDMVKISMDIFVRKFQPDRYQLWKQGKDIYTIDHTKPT
In words: Histone lysine demethylase AlphaLISA assay, KDM4C. The method, boiled down:
as §1

For a further test, the target named is T3, PHF8 (KDM7) (Homo sapiens, UniProt Q9UPP1).
T3 construct: KDM7 (PHF8); BRIC; 1-1322; Bac
T3 sequence (Q9UPP1 37-440 limits assumed): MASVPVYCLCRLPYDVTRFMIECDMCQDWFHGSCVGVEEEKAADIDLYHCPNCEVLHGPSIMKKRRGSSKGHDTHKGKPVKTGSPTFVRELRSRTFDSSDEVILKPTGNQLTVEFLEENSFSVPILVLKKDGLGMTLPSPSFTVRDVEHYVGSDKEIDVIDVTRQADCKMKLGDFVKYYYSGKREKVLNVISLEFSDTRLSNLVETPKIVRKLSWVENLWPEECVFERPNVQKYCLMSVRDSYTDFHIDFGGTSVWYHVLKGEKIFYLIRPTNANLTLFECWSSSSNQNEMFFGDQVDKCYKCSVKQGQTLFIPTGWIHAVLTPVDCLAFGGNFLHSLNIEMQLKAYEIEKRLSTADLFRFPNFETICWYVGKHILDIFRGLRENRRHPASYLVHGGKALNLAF
As to the kind of experiment: Histone lysine demethylase AlphaLISA assay, PHF8. In a few lines:
as §1

In the next test the target is T4, KDM2B (FBXL10) (Homo sapiens, UniProt Q8NHM5).
T4 construct: KDM2B; BPS,; 1-650; Bac; purchased BPS Bioscience, US; host or cells: baculovirus system
T4 sequence (Q8NHM5 1-650): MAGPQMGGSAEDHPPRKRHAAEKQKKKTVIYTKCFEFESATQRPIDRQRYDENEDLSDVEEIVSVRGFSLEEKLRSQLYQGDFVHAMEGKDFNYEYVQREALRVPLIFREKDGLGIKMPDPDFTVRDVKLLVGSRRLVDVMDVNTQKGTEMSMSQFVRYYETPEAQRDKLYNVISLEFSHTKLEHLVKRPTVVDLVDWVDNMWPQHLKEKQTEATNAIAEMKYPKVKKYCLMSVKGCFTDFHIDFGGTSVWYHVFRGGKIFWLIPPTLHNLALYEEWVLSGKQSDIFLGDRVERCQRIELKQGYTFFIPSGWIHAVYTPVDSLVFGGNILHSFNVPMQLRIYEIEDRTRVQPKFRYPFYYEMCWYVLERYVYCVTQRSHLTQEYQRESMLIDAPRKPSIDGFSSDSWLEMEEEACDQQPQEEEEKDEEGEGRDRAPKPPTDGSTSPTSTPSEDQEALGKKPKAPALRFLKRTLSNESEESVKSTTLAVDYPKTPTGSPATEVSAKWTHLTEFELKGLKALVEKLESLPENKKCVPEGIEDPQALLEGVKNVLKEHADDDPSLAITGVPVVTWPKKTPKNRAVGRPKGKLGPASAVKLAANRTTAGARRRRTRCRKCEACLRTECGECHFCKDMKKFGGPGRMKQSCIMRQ
In words: Histone lysine demethylase AlphaLISA assay, KDM2B. In a few lines: as §1

The mark [1] stands for this setting: AlphaLISA assay, read-out: HDME Inhibition KDM5B (IC50).
[2] abbreviates: AlphaLISA, in vitro, read-out: HDME Inhibition KDM5B.
The mark [3] stands for this setting: AlphaLISA assay, read-out: HDME Inhibition KDM4C (IC50).
Where [4] appears, read: AlphaLISA, in vitro, read-out: HDME Inhibition KDM4C.
Setting [5] is: AlphaLISA, in vitro, read-out: HDME Inhibition PHF8.
The mark [6] stands for this setting: AlphaLISA, in vitro, read-out: HDME Inhibition KDM2B.
[7] abbreviates: AlphaLISA assay, read-out: HDME Inhibition PHF8 (IC50).
Where [8] appears, read: AlphaLISA assay, read-out: HDME Inhibition KDM2B (IC50).

With `CC(O)c1nnc(CNCc2cc(C(=O)O)cc(CO)n2)n1Cc1ccc(F)cc1` (stereo not drawn) [Compound 77, 2-{[({4-[(4-fluorophenyl)methyl]-5-(1-hydroxyethyl)-4H-1,2,4-triazol-3-yl}methyl)amino]methyl}-6-(hydroxymethyl)pyridine-4-carboxylic acid], the IC50 was above 10 µM at KDM5B (PLU-1) (setting [1]); above 10 µM on KDM5B (PLU-1) (setting [2]); above 10 µM at KDM4C (JMJD2C) (setting [3]); above 10 µM at KDM4C (JMJD2C) (setting [4]); 1.09 µM at PHF8 (KDM7) (setting [5]); 0.379 µM at KDM2B (FBXL10) (setting [6]).

Regarding `O=C(O)c1cc(CO)nc(CNCc2nncn2CCCc2ccccc2)c1` [Compound 78, 2-(hydroxymethyl)-6-[({[4-(3-phenylpropyl)-4H-1,2,4-triazol-3-yl]methyl}amino)methyl]pyridine-4-carboxylic acid], the IC50 was 0.641 µM against KDM5B (PLU-1); above 10 µM on KDM4C (JMJD2C) (setting [3]); above 10 µM on KDM4C (JMJD2C) (setting [4]); 1.14 µM on PHF8 (KDM7) (setting [5]); 0.34 µM at KDM2B (FBXL10) (setting [6]).

Take `CC(C)C[C@@H](CO)NCc1cc(C(=O)O)cc(CO)n1` [Compound 79, 2-({[(2S)-1-hydroxy-4-methylpentan-2-yl]amino}methyl)-6-(hydroxymethyl)pyridine-4-carboxylic acid]: the IC50 on KDM5B (PLU-1) (setting [1]), on KDM5B (PLU-1) (setting [2]), on KDM4C (JMJD2C) (setting [3]), at KDM4C (JMJD2C) (setting [4]), at PHF8 (KDM7) (setting [7]) and on PHF8 (KDM7) (setting [5]) was above 10 µM throughout. The IC50 on KDM2B (FBXL10) (setting [8]) and on KDM2B (FBXL10) (setting [6]) was above 10 µM each time.

For `Cc1cc(C(=O)O)cc(CNCc2nccn2CC(C)C)n1` [Compound 80, 2-methyl-6-[({[1-(2-methylpropyl)-1H-imidazol-2-yl]methyl}amino)methyl]pyridine-4-carboxylic acid], the IC50 is 1.99 µM at KDM5B (PLU-1); above 10 µM at KDM4C (JMJD2C) (setting [3]); above 10 µM at KDM4C (JMJD2C) (setting [4]); 5.3 µM on PHF8 (KDM7) (setting [5]); 0.683 µM on KDM2B (FBXL10) (setting [6]).

Consider `O=C(O)c1cc(CO)nc(CNCc2nccn2Cc2ccc(F)cc2)c1` [Compound 81, 2-{[({1-[(4-fluorophenyl)methyl]-1H-imidazol-2-yl}methyl)amino]methyl}-6-(hydroxymethyl)pyridine-4-carboxylic acid], for which the IC50 against KDM5B (PLU-1) worked out at 0.021 µM; on KDM4C (JMJD2C) (setting [4]), 0.823 µM; at PHF8 (KDM7) (setting [5]) it was 0.334 µM; at KDM2B (FBXL10) (setting [6]), 0.14 µM.

With `Cc1cc(OCc2ccccc2)c(CCNCc2cc(C(=O)O)cc(C)n2)nn1` [Compound 82, 2-[({2-[4-(benzyloxy)-6-methylpyridazin-3-yl]ethyl)amino)methyl]-6-methylpyridine-4-carboxylic acid], the IC50 on KDM5B (PLU-1) (setting [1]) is above 10 µM; at KDM5B (PLU-1) (setting [2]), above 10 µM; at KDM4C (JMJD2C) (setting [3]) it was above 10 µM; at KDM4C (JMJD2C) (setting [4]) it was above 10 µM; at PHF8 (KDM7) (setting [5]), 3.32 µM; at KDM2B (FBXL10) (setting [6]), 1.4 µM.

As for `Cc1nc(CNCc2cc(C(=O)O)cc(CO)n2)n(Cc2ccc(F)cc2)c1C` [Compound 83, 2-{[({1-[(4-fluorophenyl)methyl]-4,5-dimethyl-1H-imidazol-2-yl}methyl)amino]methyl}-6-(hydroxymethyl)pyridine-4-carboxylic acid], the IC50 at KDM5B (PLU-1) is 0.755 µM; at KDM4C (JMJD2C) (setting [3]), above 10 µM; at KDM4C (JMJD2C) (setting [4]), above 10 µM; at PHF8 (KDM7) (setting [5]), 4.95 µM; on KDM2B (FBXL10) (setting [6]), 1.53 µM.

In the case of `COc1ccc(CC(C)C)c(CNCc2cc(C(=O)O)cc(CO)n2)n1` [Compound 84, 2-(hydroxymethyl)-6-[({[6-methoxy-3-(2-methylpropyl)pyridin-2-yl]methyl}amino)methyl]pyridine-4-carboxylic acid], the IC50 at KDM5B (PLU-1) (setting [2]) was 6.2 µM; on KDM4C (JMJD2C) (setting [3]), above 10 µM; on KDM4C (JMJD2C) (setting [4]), above 10 µM; at PHF8 (KDM7) (setting [5]), 0.673 µM; at KDM2B (FBXL10) (setting [6]) it was 0.251 µM.

For `Cc1cc(C(=O)O)cc(CNCc2nnc(C(C)O)n2Cc2ccc(F)cc2)n1` (stereo not drawn) [Compound 85, 2-{[({4-[(4-fluorophenyl)methyl]-5-(1-hydroxyethyl)-4H-1,2,4-triazol-3-yl}methyl)amino]methyl}-6-methylpyridine-4-carboxylic acid], the IC50 on KDM5B (PLU-1) (setting [1]) is above 10 µM; at KDM5B (PLU-1) (setting [2]), above 10 µM; at KDM4C (JMJD2C) (setting [3]) it was above 10 µM; on KDM4C (JMJD2C) (setting [4]), above 10 µM; on PHF8 (KDM7) (setting [5]), 1.86 µM; at KDM2B (FBXL10) (setting [6]), 0.461 µM.

Turning to `CCc1nnc(CNCc2cc(C(=O)O)cc(C)n2)n1Cc1cccc(C(C)O)c1` (stereo not drawn) [Compound 86, 2-({[(5-ethyl-4-{[3-(1-hydroxyethyl)phenyl]methyl}-4H-1,2,4-triazol-3-yl)methyl]amino}methyl)-6-methylpyridine-4-carboxylic acid], the IC50 at KDM5B (PLU-1) (setting [1]), on KDM5B (PLU-1) (setting [2]), at KDM4C (JMJD2C) (setting [3]), on KDM4C (JMJD2C) (setting [4]), at PHF8 (KDM7) (setting [7]) and at PHF8 (KDM7) (setting [5]) was above 10 µM throughout. For the same compound, the IC50 at KDM2B (FBXL10) (setting [8]) and on KDM2B (FBXL10) (setting [6]) was above 10 µM in each case.

On to `Cc1cc(OCc2ccccc2)c(CCNCc2cc(C(=O)O)cc(CO)n2)nn1` [Compound 87, 2-[({2-[4-(benzyloxy)-6-methylpyridazin-3-yl]ethyl}amino)methyl]-6-(hydroxymethyl)pyridine-4-carboxylic acid], for which the IC50 was above 10 µM at KDM5B (PLU-1) (setting [1]); above 10 µM at KDM5B (PLU-1) (setting [2]); above 10 µM on KDM4C (JMJD2C) (setting [3]); above 10 µM at KDM4C (JMJD2C) (setting [4]); 2.3 µM on PHF8 (KDM7) (setting [5]); 1.7 µM on KDM2B (FBXL10) (setting [6]).

For `O=C(O)c1cc(CO)nc(CNCc2nc(CO)cn2Cc2ccc(F)cc2)c1` [Compound 88, 2-{[({1-[(4-fluorophenyl)methyl]-4-(hydroxymethyl)-1H-imidazol-2-yl}methyl}amino]methyl}-6-(hydroxymethyl)pyridine-4-carboxylic acid], the IC50 was found to be 0.246 µM at KDM5B (PLU-1), 3.47 µM at KDM4C (JMJD2C) (setting [4]), 1.27 µM at PHF8 (KDM7) (setting [5]) and 0.585 µM at KDM2B (FBXL10) (setting [6]).

Turning to `Cc1ccc(OCCC(C)C)c(CCNCc2cc(C(=O)O)cc(C)n2)c1` [Compound 89, 2-methyl-6-[({2-[5-methyl-2-(3-methylbutoxy)phenyl]ethyl}amino)methyl]pyridine-4-carboxylic acid], the IC50 on KDM5B (PLU-1) (setting [1]), on KDM5B (PLU-1) (setting [2]), at KDM4C (JMJD2C) (setting [3]), at KDM4C (JMJD2C) (setting [4]), on PHF8 (KDM7) (setting [7]) and at PHF8 (KDM7) (setting [5]) was above 10 µM in each case. Further, the IC50 on KDM2B (FBXL10) (setting [6]) was determined as 2.3 µM.
